The source of these data is US20220046923A1, “HERBICIDAL CINNOLINIUM COMPOUNDS” (SYNGENTA CROP PROTECTION AG, priority 2018, published 2022).

Common to all, as to assay: Post-emergence efficacy, glasshouse spray test
What all share (format): in vivo

The test system of test [1] is Amaranthus palmeri (AMAPA). The following applies: application rate 1000 g/Ha, evaluated after 13 days; for pest or weed control at 1000 g/ha: Amaranthus palmeri, post-emergence, 312 h, read-out: Control of weed species AMAPA after post-emergence application (100=total damage to plant; 0=no damage to plant). In a few lines:
(§1)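 Plants sown in standard soil were grown 14 days in a glasshouse (24/16 °C day/night, 14 h light, 65% humidity) and then sprayed post-emergence. Compound in acetone/IF50 emulsifier mix was diluted in 0.25% or 1% Empicol ESC70 + 1% ammonium sulphate. Damage was scored after 13 days (0 = none, 100 = total).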

Test [2] deals with Chenopodium album (CHEAL). The following applies: application rate 1000 g/Ha, evaluated after 13 days; for pest or weed control at 1000 g/ha: Chenopodium album, post-emergence, 312 h, read-out: Control of weed species CHEAL after post-emergence application (100=total damage to plant; 0=no damage to plant). The procedure, abridged:
as §1

Test [3] has as its system Digitaria sanguinalis (DIGSA). The following applies: application rate 1000 g/Ha, evaluated after 13 days; for pest or weed control at 1000 g/ha: Digitaria sanguinalis, post-emergence, 312 h, read-out: Control of weed species DIGSA after post-emergence application (100=total damage to plant; 0=no damage to plant). In a few lines: as §1
In test [4] the test system is Echinochloa crus-galli (ECHCG). The following applies: application rate 1000 g/Ha, evaluated after 13 days; for pest or weed control at 1000 g/ha: Echinochloa crus-galli, post-emergence, 312 h, read-out: Control of weed species ECHCG after post-emergence application (100=total damage to plant; 0=no damage to plant). In a few lines:
as §1

In another test the test system is Eleusine indica (ELEIN). The following applies: application rate 1000 g/Ha, evaluated after 13 days; for pest or weed control at 1000 g/ha: Eleusine indica, post-emergence, 312 h, read-out: Control of weed species ELEIN after post-emergence application (100=total damage to plant; 0=no damage to plant). In a few lines: as §1
Test [5] concerns Euphorbia heterophylla (EPHHL). The following applies: application rate 1000 g/Ha, evaluated after 13 days; for pest or weed control at 1000 g/ha: Euphorbia heterophylla, post-emergence, 312 h, read-out: Control of weed species EPHHL after post-emergence application (100=total damage to plant; 0=no damage to plant). In a few lines:
as §1

The test system of test [6] is Ipomoea hederacea (IPOHE). The following applies: application rate 1000 g/Ha, evaluated after 13 days; for pest or weed control at 1000 g/ha: Ipomoea hederacea, post-emergence, 312 h, read-out: Control of weed species IPOHE after post-emergence application (100=total damage to plant; 0=no damage to plant). In a few lines:
as §1

Another test concerns Lolium perenne (LOLPE). The following applies: application rate 1000 g/Ha, evaluated after 13 days; for pest or weed control at 1000 g/ha: Lolium perenne, post-emergence, 312 h, read-out: Control of weed species LOLPE after post-emergence application (100=total damage to plant; 0=no damage to plant). In a few lines:
as §1

The next test concerns Setaria faberi (SETFA). The following applies: application rate 1000 g/Ha, evaluated after 13 days; for pest or weed control at 1000 g/ha: Setaria faberi, post-emergence, 312 h, read-out: Control of weed species SETFA after post-emergence application (100=total damage to plant; 0=no damage to plant). In a few lines:
as §1

As for `OCC[n+]1ccc2ccccc2n1` [Compound A119], the pest or weed control at 1000 g/ha is 90% in [1]; 90% in test [2]; 50% in test [3]; 20% in [4]; 40% in the test on Eleusine indica (ELEIN); 80% in [5]. For the same molecule, the pest or weed control at 1000 g/ha in [6] came out at 50%; in the test on Lolium perenne (LOLPE), 20%; in the test on Setaria faberi (SETFA), 50%.

Regarding `O=C(O)c1ccc(C[n+]2ccc3ccccc3n2)cc1` [Compound A89], the pest or weed control at 1000 g/ha in test [1] was 20%; in [2], 0%; in test [3] it was 0%; in test [4], 0%; in the test with Eleusine indica (ELEIN) it was 0%; in [5], 40%. Further, the pest or weed control at 1000 g/ha in test [6] was 20%; with Lolium perenne (LOLPE) it was 0%; with Setaria faberi (SETFA) it was 0%.

On to `Cc1ccc2n[n+](CC(=O)[O-])ccc2c1` [Compound A69], for which the pest or weed control at 1000 g/ha came to 30% in test [1]; 0% in test [2]; 30% in test [3]; 40% in test [4]; 30% in the test with Eleusine indica (ELEIN); 40% in test [5]. Also, the pest or weed control at 1000 g/ha in [6] was found to be 0%; in the test with Lolium perenne (LOLPE), 0%; in the test with Setaria faberi (SETFA), 30%.

Take `O=S(=O)([O-])CC[n+]1ccc2cccc(F)c2n1` [Compound A84]: the pest or weed control at 1000 g/ha in [1] amounted to 100%; in test [2], 70%; in [3], 60%; in [4], 20%; in the test on Eleusine indica (ELEIN) it was 70%; in [5] it was 100%. The pest or weed control at 1000 g/ha (in [6]; in the test on Lolium perenne (LOLPE); in the test with Setaria faberi (SETFA)) was 50% in each case.

On to `O=S(=O)([O-])OCC[n+]1nc2ccccc2cc1Cl` [Compound A111], for which the pest or weed control at 1000 g/ha in test [1] worked out at 0%; in test [2], 0%; in test [3] it was 10%; in test [4], 0%; in the test on Eleusine indica (ELEIN) it was 20%; in test [5] it was 30%. The pest or weed control at 1000 g/ha (in [6]; with Lolium perenne (LOLPE); in the test on Setaria faberi (SETFA)) was 0% in each case.

For the molecule `CSc1c[n+](CCS(=O)(=O)O)nc2ccccc12.O=C([O-])C(F)(F)F` [Compound A44], the “Control of weed species AMAPA after post-emergence application (100=total damage to plant; 0=no damage to plant)” value in [1] was 30. For the same molecule, the “Control of weed species CHEAL after post-emergence application (100=total damage to plant; 0=no damage to plant)” value in [2] came to 30. In [3], the “Control of weed species DIGSA after post-emergence application (100=total damage to plant; 0=no damage to plant)” value was determined as 30. For the same molecule, the “Control of weed species ECHCG after post-emergence application (100=total damage to plant; 0=no damage to plant)” value in test [4] amounted to 10. The “Control of weed species ELEIN after post-emergence application (100=total damage to plant; 0=no damage to plant)” value in the test on Eleusine indica (ELEIN) came out at 70. Moreover, the “Control of weed species EPHHL after post-emergence application (100=total damage to plant; 0=no damage to plant)” value in test [5] amounted to 90. In addition, the “Control of weed species IPOHE after post-emergence application (100=total damage to plant; 0=no damage to plant)” value in [6] turned out to be 20. In the test with Lolium perenne (LOLPE), the “Control of weed species LOLPE after post-emergence application (100=total damage to plant; 0=no damage to plant)” value stood at 0. Further, the “Control of weed species SETFA after post-emergence application (100=total damage to plant; 0=no damage to plant)” value with Setaria faberi (SETFA) was 30.

On to `Cc1cc2ccccc2n[n+]1CCCS(=O)(=O)[O-]` [Compound A76], for which the pest or weed control at 1000 g/ha is 60% in [1]; 60% in test [2]; 60% in test [3]; 60% in [4]; 60% with Eleusine indica (ELEIN); 50% in test [5]. For the same molecule, the values for the pest or weed control at 1000 g/ha (in test [6]; in the test on Lolium perenne (LOLPE); in the test with Setaria faberi (SETFA)) were 40%, 30% and 60%, respectively.

Take `O=S(=O)(O)CC[n+]1ccc2cc(-c3ccccc3)ccc2n1` [Compound A112]: the pest or weed control at 1000 g/ha in [1] is 10%; in test [2], 30%; in [3], 30%; in test [4] it was 10%; in the test with Eleusine indica (ELEIN), 30%; in [5] it was 20%. The results for the pest or weed control at 1000 g/ha (in test [6]; in the test on Lolium perenne (LOLPE); in the test on Setaria faberi (SETFA)) were 10%, 10% and 20%, respectively.

Consider `COC(=O)CC[n+]1cc(C)c2ccccc2n1` [Compound A63], for which the pest or weed control at 1000 g/ha worked out at 40% in test [1]; 50% in [2]; 20% in test [3]; 10% in test [4]; 40% with Eleusine indica (ELEIN); 20% in test [5]. Also, the values for the pest or weed control at 1000 g/ha (in [6]; in the test with Lolium perenne (LOLPE); in the test on Setaria faberi (SETFA)) were 10%, 30% and 10%, respectively.
